“Also recorded” adds a separate entry of the source. Numbered stars: 1 amine (or outer) side, 2 acyl side, 3 side chain; on linkers, the order of the positions; unused ones are H or OH. Bridge positions count the residues as written; N and C are the ends. Square brackets hold non-standard residues; d marks the D form. Ends that are not written are not given here. Peptide text beside a SMILES is read from it. I, II: the chains in the order shown. Actinocin(9to1) = Cc1c2oc3c(C)ccc(C(=O)[*:1])c3nc-2c(C(=O)[*:2])c(N)c1=O; NMeV = CN[C@H](C(=O)O)C(C)C; Sar = CNCC(=O)O
How the values were obtained:
ERK1/2 = assay: Immunoblot analysis of ERK1/2 phosphorylation in ASM cells; format: cell-based, human; details: for effect on PGE2-induced phosphorylation of ERK1/2: PGE2 100 nM, 30 min; for effect on isoproterenol (β2AR agonist)-induced phosphorylation of ERK1/2: isoproterenol 10 μM, 20 min
From the text: (§1) Detection of PDE4D5 mRNA transcripts: Total RNA was extracted from the cultured ASM cells using the TRIzol method (Invitrogen), and cDNAs were isolated by RT-PCR using the SuperScript First Strand Synthesis System kit from Invitrogen, with the following oligonucleotide primer sets (Integrated DNA Technologies): for PDE4D5, 5′-[…]-3′ (forward; SEQ ID NO: 2) and 5′-[…]-3′ (reverse; SEQ ID NO: 3); and for β-actin, 5′-[…]-3′ (forward; SEQ ID NO: 4) and 5′-[…]-3′ (reverse; SEQ ID NO: 5). The reaction volume was 20 μl and cycling conditions used were 35 cycles of 30 sec denaturation at 95° C., followed by 30 sec annealing at 60° C. and elongation at 72° C. for 30 sec. Ex-Tag (Takara Biotechnology) was used as DNA polymerase. […] Following protein extraction and the addition of gel-loading buffer, the extracts were loaded on a 10% SDS-PAGE gel for immunoblotting after transfer to a PVDF membrane. The membranes were then incubated overnight with monoclonal mouse anti-human primary antibodies directed against phospho-CREB and -ATF1, phospho-ERK1/2, or α-actin, and levels were detected by ECL after a 1-hr incubation with a 1:2,000 dilution of HRP-conjugated rabbit anti-mouse secondary antibody, followed by exposure to autoradiography film. The protein band intensities were quantified by densitometry. siRNA-mediated knockdown of PKA: ASM cells were seeded into 6-well plates and, at ˜40% confluency, the medium was replaced with the reduced serum-containing medium, Opti-MEM (Invitrogen). The cells were then transfected twice during a 24-hr interval with two pools of three siRNA duplexes, each pool targeted against the human PKAα or PKAγ catalytic subunits (Santa Cruz Biotechnology; sc-36240 and sc-36236, respectively), or with a non-targeted control (scrambled) siRNA duplex, using Oligofectamine (Invitrogen) as the transfection agent. The pools of siRNAs were applied to each well at a final concentration of 100 nM for each siRNA preparation. […] Transfection of ASM cells with adeno-βARK-ct: Adenovirus (adeno)-βARK-ct, an adenovirus vector encoding the βARK1 carboxyl-terminal domain which blocks Gβγ signaling (25,26), and adeno-β-gal, an adenovirus vector expressing lacZ as a negative control, were constructed using the AdenoX adenovirus construction kit (BD-Clontech). Recombinant plaques were isolated and propagated in HEK293 cells (Invitrogen), with viral purification using the cesium chloride gradient method, and viral titer detected by plaque assay. The ASM cells were transfected with either of the adenoviral vectors at a multiplicity of infection (MOI) of 100, and experiments were conducted at 24 hr following adenoviral tranfections. Pharmacodynamic studies of constrictor and relaxation responsiveness in rabbit ASM tissues: Following initial sedation and subsequent general anesthesia with intramuscular injections of xylazine (10 mg/kg) and ketamine (50 mg/kg), respectively, rabbits were sacrificed with an intravenously administered overdose of sodium pentobarbital (100 mg/kg). As described previously (16), the tracheae were excised via open thoracotomy, the loose connective tissue and epithelium were scraped and removed, and the tracheae were divided into 8 ring segments, each of 6-8 mm in length. […] After these incubations, the tissues were placed in organ baths containing modified Krebs-Ringer solution aerated with 5% CO2 in oxygen (pH of 7.35-7.40), and attached to force transducers to continuously monitor isometric tension. […] The constrictor and relaxation dose-response curves were analyzed with respect to each tissue's maximal isometric contractile force (Tmax) to ACh and maximal relaxation response (Rmax) to isoproterenol from the initial level of active cholinergic contraction. Statistical analyses: Results are expressed as mean±SE values. Comparisons between groups were made using the Student's t-test (two-tailed) or ANOVA with Tukey's post-test analysis, where appropriate.

PDE4D5 mRNA = assay: Detection of PDE4D5 mRNA transcripts by RT-PCR in ASM cells; format: cell-based, human; details: 6 hr; for effect of pretreatment on PGE2-induced upregulated PDE4D5 mRNA expression: PGE2 100 nM; for effect of pretreatment on β2AR agonist (isoproterenol)-induced upregulated PDE4D5 mRNA expression: isoproterenol 10 μM
From the text: as §1

CREB/ATF1 = assay: Immunoblot analysis of CREB/ATF1 phosphorylation in ASM cells; format: cell-based, human; details: PGE2 100 nM, 30 min
From the text: as §1

human ASM cells [1] = assay: Assay of cAMP PDE activity in ASM cell lysates; format: cell-based; details: for effect of pretreatment on PGE2-induced increase in PDE activity: PGE2 100 nM x 24 hr, peptides 30 μM (Example III); for effect of pretreatment on PGE2- and forskolin-induced increases in PDE activity: PGE2 or forskolin x 24 hr (100 μM in text, 100 nM in legends); for effect of pretreatment on salmeterol- and isoproterenol-induced increase in PDE activity: salmeterol or isoproterenol 10 μM x 24 hr
human ASM cells [2] = assay: Assay of cAMP PDE activity in ASM cell lysates; format: cell-based; details: for effect of the agent alone on basal PDE activity: no cAMP-elevating agent
Protocol: Assay of cAMP PDE activity: Levels of cAMP PDE activity were assayed in ASM cell lysates using a colorimetric, non-radioactive enzymatic assay kit from Biomol, as per the manufacture's protocol. PDE activity was determined following exposure of ASM cells for 24 hr to either vehicle alone (control), PGE2 (100 μM), or forskolin (100 μM) in the absence and presence of pretreatment with rolipram (10 μM), cycloheximide (100 μM), actinomycin D (4 μM), or H89 (10 μM).
In each case, the measured levels of PDE activity were standardized to the protein content in the cell extracts.

In the case of `COC(=O)[C@H](CC(C)C)NC(=O)c1ccc(NC[C@@H](N)CS)cc1-c1cccc2ccccc12` [GGTI-298], the “effect on PGE2-induced phosphorylation of ERK1/2” value (ERK1/2) is reported as “did not exhibit attenuated; also recorded: no effect” and the “effect on isoproterenol (β2AR agonist)-induced phosphorylation of ERK1/2” value (ERK1/2) is reported as “did not exhibit attenuated; also recorded: no effect”.

`O=C1Nc2ccc(I)cc2/C1=C/c1cc(Br)c(O)c(Br)c1` [GW5074] was tested, and the “effect on PGE2-induced phosphorylation of ERK1/2” value (ERK1/2) was “completely ablated; also recorded: prevents” and the “effect on isoproterenol (β2AR agonist)-induced phosphorylation of ERK1/2” value (ERK1/2) was “completely abrogated; also recorded: prevents”.

In the case of `Oc1ccc(-c2nc(-c3ccncc3)c(-c3ccc(F)cc3)[nH]2)cc1` [SB202190], the “effect on PGE2-induced phosphorylation of ERK1/2” value (ERK1/2) is reported as “neither PGE2-induced phosphorylation of ERK1/2 nor CREB/ATF was affected”, the “effect of pretreatment on PGE2-induced upregulated PDE4D5 mRNA expression” value (PDE4D5 mRNA) is reported as “neither the p38 MAPK nor JNK inhibitor (lanes 5 and 6, respectively) had an attenuating effect” and the “effect of pretreatment on β2AR agonist (isoproterenol)-induced upregulated PDE4D5 mRNA expression” value (“effect of pretreatment on β2AR agonist” below) (PDE4D5 mRNA) is reported as “unaffected; also recorded: no effect”. The “effect on PGE2-induced phosphorylation of CREB/ATF1” value (CREB/ATF1) was “neither PGE2-induced phosphorylation of ERK1/2 nor CREB/ATF was affected”.

With “MPS- Gαi2 (AAVALLPAVLLALLAKNNLKDCGLF; also: MPS attached) [Gαi2 blocking peptide]” the “effect of pretreatment on PGE2-induced increase in PDE activity” value (human ASM cells [1]) was “only a partial inhibitory effect” and the “effect of pretreatment on PGE2-induced increase in PDE activity” value (human ASM cells [1]; listed as anti-Gαi2 inhibitory peptide) was “only exerts a partial inhibitory effect”.

In the case of `Oc1c2ccccc2c2c3c(cccc13)N=N2` [SP600125], the “effect of pretreatment on β2AR agonist” value (PDE4D5 mRNA) is reported as “no effect”.

For `CN(C)S(=O)(=O)c1ccc2c(c1)/C(=C/c1cc3c([nH]1)CCCC3)C(=O)N2` [SU6656], the “effect on PGE2-induced phosphorylation of ERK1/2” value (ERK1/2) was “largely prevented; also recorded: ablated”, the “effect of pretreatment on PGE2-induced upregulated PDE4D5 mRNA expression” value (PDE4D5 mRNA) was “ablated” and the “effect of pretreatment on PGE2-induced upregulated PDE4D5 mRNA expression” value (PDE4D5 mRNA; listed as Src inhibitor) was “markedly inhibited”. For the same compound, the “effect of pretreatment on β2AR agonist” value (PDE4D5 mRNA) was “prevented; also recorded: ablated” and the “effect on PGE2-induced phosphorylation of CREB/ATF1” value (CREB/ATF1) was “largely prevented; also recorded: ablated”.

In the case of `C[C@@H]1C[C@@H]([C@H](O)CC2CC(=O)NC(=O)C2)C(=O)[C@@H](C)C1` [cycloheximide], the “effect of pretreatment on PGE2- and forskolin-induced increases in PDE activity” value (human ASM cells [1]) is reported as “completely ablated”, the “effect of pretreatment on salmeterol- and isoproterenol-induced increase in PDE activity” value (human ASM cells [1]) is reported as “completely ablated” and the “effect of the agent alone on basal PDE activity” value (human ASM cells [2]) is reported as “neither actinomycin D nor cycloheximide alone significantly affected”.

In the case of `Cc1c2oc3c(C)ccc(C(=O)N[C@@H]4C(=O)N[C@H](C(C)C)C(=O)N5CCC[C@H]5C(=O)N(C)CC(=O)N(C)[C@@H](C(C)C)C(=O)O[C@@H]4C)c3nc-2c(C(=O)N[C@@H]2C(=O)N[C@H](C(C)C)C(=O)N3CCC[C@H]3C(=O)N(C)CC(=O)N(C)[C@@H](C(C)C)C(=O)O[C@@H]2C)c(N)c1=O` [actinomycin D] (I: T[dV]P[Sar][NMeV] / II: T[dV]P[Sar][NMeV]; ester I:1-I:C, II:1-II:C; linker I:N-II:N via Actinocin(9to1)), the “effect of pretreatment on PGE2- and forskolin-induced increases in PDE activity” value (human ASM cells [1]) is reported as “completely ablated”, the “effect of pretreatment on salmeterol- and isoproterenol-induced increase in PDE activity” value (human ASM cells [1]) is reported as “completely ablated” and the “effect of the agent alone on basal PDE activity” value (human ASM cells [2]) is reported as “neither actinomycin D nor cycloheximide alone significantly affected”.

For `C=C[C@@]1(C)CC(=O)[C@]2(O)[C@@]3(C)[C@@H](O)CCC(C)(C)[C@@H]3[C@H](O)[C@H](OC(C)=O)[C@@]2(C)O1` [forskolin], the “PDE activity, fold above control” value (human ASM cells [2]; cells incubated 24 hr with the agent (PGE2 or forskolin 100 μM; salmeterol or isoproterenol 10 μM)) was 4.01 fold.

From patent US8569229B2, “Compositions and methods which modulate G-protein signaling for the treatment of inflammatory disorders such as asthma and allergic conjunctivitis” (The Children's Hospital of Philadelphia, priority 2008, dated 2013)
